Values quoted from earlier work in patent US20090093542A1, “Copper antagonist compositions” (priority 2007, published 2009).

How the values were obtained:
[1] = long-term use in Wilson's disease
[2] = solution of the free base itself

In the case of `CC(C)(S)[C@@H](N)C(=O)O` [Penicillamine, 3-mercapto-D-valine], the solubility in alcohol (alcohol) is listed as “slightly soluble”, the “solubility in ether, acetone, benzene, and carbon tetrachloride” value (ether, acetone, benzene, carbon tetrachloride) is listed as “insoluble” and the solubility in water (water) is listed as “freely soluble”.
For `CC(=O)[O-].CC(=O)[O-].[Zn+2]` [Zinc acetate], the “long-term or major side effects in patients” value [1] is given as “has not shown any long-term or major side effects”.
In the case of `NCCNCCNCCN` [trientine, triethylenetetramine], the “pH of a solution” value [2] is given as 14.
